According to article PMC5046105, “Improved affinity at the cost of decreased specificity: a recurring theme in PDZ-peptide interactions” (Scientific Reports, 2016):
Ends that are not written are not given here.

Tests used:
[1] = target: T1, pWT PDZ2 (pseudo wild type SAP97 PDZ2, I342W/C378A) (Homo sapiens, UniProt Q12959, C378A/I342W); assay: Stopped-flow binding kinetics, peptide with pWT PDZ2; settings: for Kd: Kd = koff/kon, ± propagated standard error; for Kd / koff: pH 7.5, 10 °C; for kon: Trp342 fluorescence, 1 µM PDZ, peptide 2–40 µM, N-acetylated peptide, 50 mM potassium phosphate pH 7.5, 10 °C; for kon / koff: value ± standard error; for koff: displacement of pre-formed complex (1 µM PDZ, 2 µM peptide) with 100 and 150 µM dansylated RRRETQV peptide
T1 construct: constituting SAP97 residues 311–407 and the mutations I342W and C372A; His-tagged lipoyl protein domain (N, cleaved yes); made in house
T1 sequence (Q12959 311-407 I342W/C378A): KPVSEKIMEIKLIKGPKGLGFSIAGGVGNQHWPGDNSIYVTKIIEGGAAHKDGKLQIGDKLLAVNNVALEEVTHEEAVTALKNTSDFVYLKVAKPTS
Experimental: (§1) The basic experimental parameters determined were the rate constants of association (kon) and dissociation (koff) for each peptide and for all PDZ variants, respectively, in a procedure described in Fig. 2 for the interaction between PDZØ9 and the EKKHTLL peptide as an example.
(§2) Figure 2 Determination of the two rate constants kon and koff for PDZØ9 binding to the EKKHTLL peptide. kon and koff were determined in separate experiments using stopped-flow spectroscopy and monitoring the change in Trp fluorescence upon binding. (a) The experimental trace was obtained by averaging of three individual experiments in which 11 μM of the EKKHTLL peptide was mixed with 1 μM PDZØ9. The trace was fitted to a single exponential function to obtain the observed rate constant, kobs. […] (c) In a displacement reaction a pre-formed complex between PDZØ9 (1 μM) and the EKKHTLL peptide (2 μM) was mixed with a large excess of dansyl-labeled peptide corresponding to the C-terminal […] of HPV18 E6 (150 μM). […] At high concentrations of dansylated peptide, none of the dissociated EKKHTLL will re-bind, and fitting to a single exponential function returns a kobs value which is equal to the dissociation rate constant, koff, of the pre-formed complex.
(§3) All of the stopped-flow experiments conducted in order to measure the rate constants for the peptide/PDZ interactions, were performed on an SX-20 MV stopped-flow spectrometer (Applied Photophysics Leatherhead, UK) at 10 °C in 50 mM potassium phosphate buffer, pH 7.5. Fluorescence was monitored using the change in emission of Trp342 in the PDZ variants (excitation at 280 nm; emission at 330 ± 30 nm). The peptides were N-acetylated (Ontores Biotechnologies) and the concentration of the respective stock solution was determined with either absorbance, quantitative amino acid analysis or direct detect (EMD Millipore). The rate constants of association, kon, and dissociation, koff, were determined in separate experiments. […] For each PDZ variant the kobs values were plotted versus the concentration of peptide and fitted to the general equation for a reversible bimolecular interaction[38][39] from which kon was derived. The koff was measured in a displacement experiment in which a pre-formed complex of PDZ variant (1 μM) and peptide (2 μM) was mixed with high concentrations of a dansylated RRRETQV-peptide (100, and 150 μM), which competes with the unlabelled peptide for binding to the PDZ. […] The kobs value at high peptide concentration is equal to the overall koff value, as described previously.

[2] = target: T2, PDZØ9 (pWT SAP97 PDZ2 L391F/K392M) (Homo sapiens, UniProt Q12959, C378A/I342W/K392M/L391F); assay: Stopped-flow binding kinetics, peptide with PDZØ9; settings: stopped-flow; for Kd: Kd = koff/kon, ± propagated standard error; for Kd / koff: pH 7.5, 10 °C; for koff: displacement of pre-formed complex (1 µM PDZ, 2 µM peptide) with 100 and 150 µM dansylated RRRETQV peptide; for koff / kon: value ± standard error; for kon: Trp342 fluorescence, 1 µM PDZ, peptide 2–40 µM, N-acetylated peptide, 50 mM potassium phosphate pH 7.5, 10 °C
T2 construct: constituting SAP97 residues 311–407 and the mutations I342W and C372A; His-tagged lipoyl protein domain (N, cleaved yes); made in house
T2 sequence (Q12959 311-407 I342W/C378A/L391F/K392M): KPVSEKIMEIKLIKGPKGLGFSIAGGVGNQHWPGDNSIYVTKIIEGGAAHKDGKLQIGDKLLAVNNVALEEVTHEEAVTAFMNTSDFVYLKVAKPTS
Experimental: as §1, §2, §3

pWT PDZ2 L391F = target: T3, pWT PDZ2 L391F (Homo sapiens, UniProt Q12959, C378A/I342W/L391F); assay: Stopped-flow binding kinetics, peptide with pWT PDZ2 L391F; settings: for Kd: Kd = koff/kon, ± propagated standard error; for Kd / koff: pH 7.5, 10 °C; for kon: Trp342 fluorescence, 1 µM PDZ, peptide 2–40 µM, N-acetylated peptide, 50 mM potassium phosphate pH 7.5, 10 °C; for kon / koff: value ± standard error; for koff: displacement of pre-formed complex (1 µM PDZ, 2 µM peptide) with 100 and 150 µM dansylated RRRETQV peptide
T3 construct: constituting SAP97 residues 311–407 and the mutations I342W and C372A; His-tagged lipoyl protein domain (N, cleaved yes); made in house
T3 sequence (Q12959 311-407 I342W/C378A/L391F): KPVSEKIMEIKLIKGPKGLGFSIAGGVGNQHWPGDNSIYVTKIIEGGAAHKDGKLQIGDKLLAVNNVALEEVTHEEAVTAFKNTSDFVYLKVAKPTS
Experimental: as §1, §2, §3

pWT PDZ2 K392M = target: T4, pWT PDZ2 K392M (Homo sapiens, UniProt Q12959, C378A/I342W/K392M); assay: Stopped-flow binding kinetics, peptide with pWT PDZ2 K392M; settings: for Kd: Kd = koff/kon, ± propagated standard error; for Kd / koff: pH 7.5, 10 °C; for kon: Trp342 fluorescence, 1 µM PDZ, peptide 2–40 µM, N-acetylated peptide, 50 mM potassium phosphate pH 7.5, 10 °C, value ± standard error (EKKHTLL: mean of two experiments); for koff: displacement of pre-formed complex (1 µM PDZ, 2 µM peptide) with 100 and 150 µM dansylated RRRETQV peptide, value ± standard error
T4 construct: constituting SAP97 residues 311–407 and the mutations I342W and C372A; His-tagged lipoyl protein domain (N, cleaved yes); made in house
T4 sequence (Q12959 311-407 I342W/C378A/K392M): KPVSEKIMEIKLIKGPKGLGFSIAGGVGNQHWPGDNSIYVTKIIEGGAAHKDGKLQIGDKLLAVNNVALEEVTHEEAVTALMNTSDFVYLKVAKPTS
Experimental: as §1, §2, §3

Row | Substance | Kd [1] [µM] | kon [1] [M⁻¹ s⁻¹] | koff [1] [s⁻¹] | Kd [2] [µM] | koff [2] [s⁻¹] | kon [2] [M⁻¹ s⁻¹] | Kd (pWT PDZ2 L391F) [µM] | kon (pWT PDZ2 L391F) [M⁻¹ s⁻¹] | koff (pWT PDZ2 L391F) [s⁻¹] | Kd (pWT PDZ2 K392M) [µM] | kon (pWT PDZ2 K392M) [M⁻¹ s⁻¹] | koff (pWT PDZ2 K392M) [s⁻¹]
1 | Ac-EKKHTLL [EKKHTLL] | 9.3 ± 0.4 | 1.2e+07 ± 500000 | 112 ± 1.2 | 0.56 ± 0.005 | 7.9 ± 0.04 | 1.4e+07 ± 100000 | 0.65 ± 0.007 | 1.1e+07 ± 80000 | 7.1 ± 0.05 | 14 ± 2 | 1.1e+07 ± 1.7e+06 | 157 ± 2
2 | Ac-KRKETLV [KRKETLV] | 0.47 ± 0.006 | 6.4e+06 ± 60000 | 3 ± 0.03 | 0.08 ± 0.001 | 0.6 ± 0.005 | 8e+06 ± 60000 | 0.08 ± 0.001 | 7.4e+06 ± 60000 | 0.6 ± 0.005 | 0.47 ± 0.002 | 7.2e+06 ± 20000 | 3.4 ± 0.01
3 | Ac-NSKETVV [NSKETVV] | 0.66 ± 0.007 | 1.3e+07 ± 100000 | 8.6 ± 0.07 | 0.16 ± 0.002 | 1.6 ± 0.01 | 1e+07 ± 70000 | 0.15 ± 0.001 | 1.3e+07 ± 90000 | 1.9 ± 0.01 | 0.79 ± 0.01 | 9.7e+06 ± 70000 | 7.7 ± 0.18
4 | Ac-PGKETQL [PGKETQL] | 2.8 ± 0.1 | 1.8e+07 ± 600000 | 51 ± 1.8 | 0.24 ± 0.004 | 3.9 ± 0.03 | 1.6e+07 ± 200000 | 0.25 ± 0.004 | 2e+07 ± 300000 | 5 ± 0.02 | 2.7 ± 0.2 | 1.8e+07 ± 600000 | 48 ± 2.3
5 | Ac-RRRETQV [RRRETQV, reference compound] | 0.4 ± 0.005 | 8e+06 ± 40000 | 3.2 ± 0.04 | 0.06 ± 0.002 | 0.6 ± 0.015 | 9.8e+06 ± 50000 | 0.07 ± 0.001 | 8.7e+06 ± 40000 | 0.6 ± 0.01 | 0.37 ± 0.003 | 9e+06 ± 40000 | 3.3 ± 0.02
6 | Ac-RSISTDV [RSISTDV] | 1.2 ± 0.03 | 2.1e+07 ± 500000 | 26 ± 0.3 | 0.25 ± 0.005 | 4.3 ± 0.06 | 1.7e+07 ± 200000 | 0.18 ± 0.003 | 2.4e+07 ± 300000 | 4.3 ± 0.05 | 1.8 ± 0.04 | 1.7e+07 ± 300000 | 31 ± 0.3
7 | Ac-SARSTDV [SARSTDV] | 1.6 ± 0.03 | 1.6e+07 ± 200000 | 26 ± 0.3 | 0.26 ± 0.005 | 3.4 ± 0.06 | 1.3e+07 ± 100000 | 0.22 ± 0.003 | 1.8e+07 ± 100000 | 4 ± 0.05 | 2.1 ± 0.03 | 1.2e+07 ± 100000 | 25 ± 0.3
8 | Ac-TSRETDL [TSRETDL] | 2.2 ± 0.07 | 3.3e+07 ± 1.1e+06 | 71 ± 0.5 | 0.17 ± 0.004 | 2.6 ± 0.04 | 1.5e+07 ± 200000 | 0.21 ± 0.006 | 1.8e+07 ± 400000 | 3.8 ± 0.06 | 4.1 ± 0.2 | 1.5e+07 ± 500000 | 62 ± 0.9
9 | Ac-VSKETPL [VSKETPL] | 3.9 ± 0.2 | 4e+07 ± 2.2e+06 | 154 ± 3 | 0.75 ± 0.02 | 6.3 ± 0.2 | 8.4e+06 ± 60000 | 0.8 ± 0.02 | 1.1e+07 ± 100000 | 8.8 ± 0.2 | 6.3 ± 0.6 | 2.4e+07 ± 2.2e+06 | 150 ± 3
